According to patent publication US20220273752A1, “MODULATION OF DENDRITIC CELL FUNCTION BY THE PHOSPHOLIPID MESSENGER LPA” (Cornell University, priority 2019, published 2022):

Experiments:
Type in all cases: cell-based, murine
BMDCs, sDCs and pDCs = assay: IFN-β ELISA in DCs stimulated with TLR agonists; details: Poly (I:C), LPS or CpG ODN1585, LPA 10 uM and 100 uM
Protocol: FIG. 12A-12D illustrate that LPA represses IFN-β production by diverse DC types. Splenic dendritic cells (sDCs), bone marrow dendritic cells (BMDCs) and plasmacytoid dendritic cells (pDCs) were stimulated with Poly (I:C) (a high molecular weight, synthetic analog of double-stranded RNA (dsRNA) that is a potent inducer of interferon), LPS (lipopolysaccharide) or CpG ODN1585 (a synthetic immunostimulatory oligonucleotide) in the presence or absence of LPA (10 uM and 100 uM). IFN-β protein expression levels were determined by ELISA. **P<0.001, ***P<0.0005, ****P<0.0001. FIG. 12A illustrates IFN-β protein expression in splenic DCs (sDCs) after treatment with LPA and/or Poly (I:C). FIG. 12B illustrates IFN-β protein expression in bone marrow dendritic cells (BMDCs) after treatment with LPA and/or Poly (I:C). FIG. 12C illustrates IFN-β protein expression in bone marrow dendritic cells (BMDCs) after treatment with LPS and/or LPA. FIG. 12D illustrates IFN-β protein expression in plasmacytoid DCs (pDCs) after treatment with ODN1585 and/or LPA.
These effects also occurred in diverse DC types such as BMDCs, splenic DCs (sDCs) and plasmacytoid DCs (pDCs) during stimulation through Toll-like Receptors (TLRs) or upon exposure to cancer cells treated with inhibitors of poly ADP-ribose polymerase (PARP) that induce DNA damage. […] The structure of Talazoparib is shown below.

[1] = tested on: bone marrow-derived dendritic cells (BMDCs); assay: Bodipy 493/503 staining of intracellular lipids in BMDCs by FACS; details: 100 μM LPA, 6 hours
Source text: Bodipy 493/503 staining was used to detect intracellular lipids by FACS. ***P<0.0005. FIG. 2B graphically illustrates quantities of Bodipy-stained intracellular lipids in LPA-treated cells compared to untreated cells.

[2] = tested on: TBK1 and IRF3 proteins in BMDCs; assay: Western blot of TBK1 and IRF3 phosphorylation in BMDCs; details: LPS- or Poly(I:C)-treated BMDCs; compared with untreated
Protocol: The activation status of signaling pathways implicated in the optimal induction of type-I IFNs was then evaluated.

BMDCs = assay: RT-qPCR of type-I IFN target genes in BMDCs
Protocol: FIG. 11A-11H illustrate that LPA downregulates type-I IFN target genes in dendritic cells. BMDCs were left untreated or incubated with LPA (100 uM) for 2 hours and 6 hours, and gene expression was determined by RT-qPCR. **P<0.001, ***P<0.0005, ****P<0.0001. FIG. 11A illustrates downregulation of Ddx58 mRNA (encoding DExD/H-box helicase 58) relative to Actb expression at 2 hours and 6 hours after LPA treatment of BMDCs. FIG. 11B illustrates downregulation of Ifit1 mRNA (encoding interferon-induced protein with tetratricopeptide repeats 1) relative to Actb expression at 2 hours and 6 hours after LPA treatment of BMDCs. FIG. 11C illustrates downregulation of Ifit2 mRNA (encoding interferon-induced protein with tetratricopeptide repeats 2) relative to Actb expression at 2 hours and 6 hours after LPA treatment of BMDCs. FIG. 11D illustrates downregulation of Isg15 mRNA (interferon-stimulated gene 15) relative to Actb expression at 2 hours and 6 hours after LPA treatment of BMDCs. FIG. 11E illustrates downregulation of Ciita mRNA (encoding a Class II Major Histocompatibility Complex Transactivator) relative to Actb expression at 2 hours and 6 hours after LPA treatment of BMDCs. FIG. 11F illustrates downregulation of Oas1a mRNA (encoding 2′-5′ oligoadenylate synthetase 1A) relative to Actb expression at 2 hours and 6 hours after LPA treatment of BMDCs. […]

## lysophosphatidic acid [LPA]
BMDCs, sDCs and pDCs
  IFN-β protein levels upon TLR agonist stimulation: decreased levels
[1]
  intracellular lipid accumulation in dendritic cells: induces intracellular lipid accumulation
[2]
  phosphorylation of TBK1 and IRF3 proteins: inhibited phosphorylation
BMDCs; BMDCs, LPA 100 uM, 2 hours and 6 hours
  type-I IFN target gene expression (Ddx58, Ifit1, Ifit2, Isg15, Ciita, Oas1a, Oas1g, Oas2): decreased
BMDCs; coculture
  expression of type-I IFN-related genes in BMDCs exposed to Talazoparib-treated ovarian cancer cells: prevented expression
